Reference: paper PMC6014988, “Precision therapeutic targeting of human cancer cell motility” (Nature Communications, 2018)
Read-outs that look alike come from different tables or passages of the source.

Key:
[1] = Pharmacokinetics in CD1 mice, oral gavage and iv; type: in vivo, mouse
Description: For determination of pharmacokinetic (PK) parameters, KBU2046 was administered by either intravenous injection or oral gavage to groups of N = 3 CD1(ICR) mice at 0 (i.e., vehicle only), 25, or 100 mg/kg. Blood was collected into EDTA by terminal cardiac puncture before drug administration (i.e., baseline) and at 5, 10, 15, 30, 45, 60, 90, 120, 180, 240, 360, 480, 960, 1440 min after administration. In separate experiments, as described above, Balb/c athymic mice were dosed with KBU2046 incorporated into chow for 35 days, after which blood was collected by terminal cardiac puncture. Resultant plasma (~250 μl/mouse) was stored at −80 °C.
Plasma KBU2046 concentrations were measured in duplicate by liquid chromatography-tandem mass spectrometry after sample preparation by solid-phase extraction. Specifically, 0.1 mL of a sample, 10 μL of 0.1 μg/mL internal standard solution (3-(2-chlorophenyl)-(4H-1-benzopyran-4-one, a chloride analog of KBU2046), 3800 μL of water, and 10 μl of 85% phosphoric acid were added, vortexed, and stored at 4 °C for 2 h. After washing a 96-well Strata-X 33 µm polymeric reversed phase 30 mg/well solid-phase extraction plate (Phenomenex) with methanol and water, sample was applied, washed with 20% methanol in water, eluted with 70% acetonitrile/30% methanol, dried at 50 °C under N2, reconstituted with 100 μL of mobile phase, and 20 µL was analyzed on an API 3000 liquid chromatography-tandem mass spectrometry system (Applied Biosystems) with an Agilent 1100 series HPLC system (Agilent Technologies). Samples were eluted isocratically from a Synergi 4-μm MAX-RP 100 Å column (2.0 × 50 mm; Phenomenex) by a mobile phase consisting of 10 mM ammonium formate in water and methanol (30:70 [vol/vol]) at a flow rate of 0.20 mL/min. The tandem mass spectrometer was operated with its electrospray source in the positive ionization mode. The mass-to-charge ratios of the precursor-to-product ion reactions monitored were 243.5 → 125.1 for KBU2046 and 257.0 → 165.0 for the internal standard. The retention time of KBU2046 was ~2.7 min while that of the internal standard was ~2.3 min. The linear range for plasma KBU2046 standard curves was 0.1–25.0 ng/mL, with coefficients of variation of 10% or less throughout the entire concentration range. Fresh plasma standard curves were prepared in blank plasma and run on the day of analysis of plasma samples.
Plasma KBU2046 concentration vs. time relationships after both intravenous and oral drug administration were modeled simultaneously using the SAAM II software system (SAAM Institute), implemented on a WindowsTM-based PC (see PK modeling schema). Plasma concentrations were modeled with a three-compartment PK model using a naive pooled data approach. Oral drug absorption was characterized by a tanks-in-series delay element, to account for the non-instantaneous appearance of drug in the body. Simultaneous estimation of PK model parameters for both routes of administration permitted estimation of the bioavailability of the orally administered drug (F)[41]. The SAAM II objective function used was the extended least-squares maximum likelihood function using data weighted with the inverse of the model-based variance of the data at the observation times. Model misspecification was sought by visual inspection of the measured and predicted marker concentrations vs. time relationships (Fig. 7)[42].

[2] = system: over 400 different protein kinases and 20 phosphatases; experiment: Kinase and phosphatase inhibition, three in vitro assay systems; type: biochemical
Description: Initial assays were performed with PC3 and PC3-M cells (PC3 cell data not shown). However, as these studies yielded similar findings, subsequent screening assays utilized only PC3-M cells. In designing chemical synthetic routes, priority was given to efficacy and toxicity parameters. Additional design features were also included in our chemical […]
toxicity parameters. These additional design features included removal of fragments that mediated genistein binding to the estrogen receptor (ER), as determined by ER-genistein 3D x-ray crystal structures (Protein Data Base IDs:1X7R and 1X7J, for crystal structures of ERα and ERβ with bound genistein, respectively). These features also included removal of chemical fragments that are considered to increase susceptibility to rapid metabolism, especially that by the cytochrome P450 (CYP) pathway. The final feature involved incorporation of chemical characteristics previously shown to be associated with effective drugs and which together generally impart more favorable pharmacologic properties, including those described by Lipinski […]
Supplementary Note 2. […] Three […]
different assays systems were employed.
Kinase assay system #1. The KINOMEscan™ assay (Ambit Biosciences). This assay evaluates 442 kinases, including 400 distinct parental kinases plus mutants known to alter activity or responsiveness. […]

[3] = combined fit of both doses by both routes

## O=C1c2ccccc2OCC1c1ccc(F)cc1 (racemic) [KBU2046, (±)-3(4-fluorophenyl)chroman-4-one]
[1]; CD1(ICR), mouse, plasma, combined fit of both doses by both routes, read-out: Clearance, Elimination CLE
  clearance: 1.53 mL/min
[1]; CD1(ICR), mouse, plasma, combined fit of both doses by both routes, read-out: Clearance, Fast CLF
  clearance: 0.61 mL/min
[1]; CD1(ICR), mouse, plasma, combined fit of both doses by both routes, read-out: Clearance, Slow CLS
  clearance: 0.11 mL/min
[1]; CD1(ICR), mouse, plasma, combined fit of both doses by both routes, read-out: Distribution volume, Total VSS
  Vd: 0.0636 L
[1]; CD1(ICR), mouse, plasma, combined fit of both doses by both routes, read-out: Elim Half-life (converted)
  half-life: 2.27 h
[1]; CD1(ICR), mouse, plasma, 25 mg/kg by oral gavage
  bioavailability: 4.6%
[1]; CD1(ICR), mouse, plasma, 100 mg/kg by oral gavage
  bioavailability: 10.1%
[1]; [3]
  Absorption delay: 32.3 min
  Distribution volume, Central VC: 19.3 mL
  Distribution volume, Fast VF: 20.4 mL
  Distribution volume, Slow VS: 23.9 mL
[1]; single oral dose
  time plasma concentrations maintained >24 nM: 9.3 h
[2]
  inhibition of protein kinases and phosphatases: failure to inhibit
